Data on 26 molecules can be found in patent US10626087B2, “Indoline and tetrahydroquinoline sulfonyl inhibitors of dimetalloenzymes and use of the same” (priority 2015, dated 2020).

The structures appear in SMILES notation. pIC50, pKi: −log10 of the molar value. Like-named read-outs stand apart in the source and are kept apart here.

The test concerns the target NDM-1 (Klebsiella pneumoniae, UniProt C7C422). In words: Inhibition of NDM-1 assay (CHROMACEF hydrolysis, absorbance at 442 nm). Conditions: for IC50: *estimated or actual from a single point, target not given, values match the NDM-1 IC50 column, read-out: IC50 μM*; for Activity w/100 uM [I]: enzyme activity with 100 uM inhibitor; for Activity w/200 uM [I]: enzyme activity with 200 uM inhibitor; for pIC50: fitted IC50 with error, read-out: NDM-1 IC50. The test is classed as biochemical. The method, then:
The ability of the compounds described herein to inhibit NDM-1 was determined in the following way.
A Substrate Working Solution was prepared from CRHROMACEF (6 μM) and Tween-20 (0.02% v/v) in water. An Enzyme Working Solution was prepared with NDM-1 (0.5 μg/mL), Hepes (0.1 M), pH 7 and Tween-20 (0.02% v/v). An Inhibitor Working Solution was prepared from 50 mM of the inhibitor in DMSO. The final assay conditions were 1 mL, Hepes (50 mM), pH 7, Tween-20 (0.02% v/v), CHROMACEF (3 uM), Δ35 NDM-1 (0.25 μg/mL). Extra zinc was omitted from these assays because extra ZnSO4 interferes with the metal binding groups in inhibitors.
[…] Supplemental DMSO was added to reach a final volume of 4 μL. NDM-1 Working Solution ([…]) was added to the cuvette and the inhibitor and enzyme were allowed to incubate for about 20 minutes. The reaction was initiated by added 0.5 mL Substrate Working Solution. The solution was mixed quickly, but gently to avoid bubble formation. […] to start the reaction. The reaction was mixed fast, but gently. The change in absorbance ΔΔAbs442nm/min was measured for each inhibitor from the linear slope from each inhibitor concentration.

NDM-1, sequence (C7C422 36-270 limits assumed, looked up): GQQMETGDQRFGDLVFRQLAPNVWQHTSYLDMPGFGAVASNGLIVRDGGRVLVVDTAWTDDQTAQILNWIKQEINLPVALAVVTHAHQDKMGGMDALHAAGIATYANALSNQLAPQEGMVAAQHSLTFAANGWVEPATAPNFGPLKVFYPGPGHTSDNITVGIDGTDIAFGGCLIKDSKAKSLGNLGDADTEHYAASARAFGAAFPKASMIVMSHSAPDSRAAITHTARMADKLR

Turning to `CC(=O)N1CCc2cc(Br)c(S(=O)(=O)NC(=O)CC(O)c3ccccc3)cc21` (stereo not drawn), the IC50 (in general, the concentration that inhibits the measured activity by half) was 100 µM and the inhibition (usually the drop in the measured response relative to a control, in per cent) at 5 µM worked out at 8.1%. The inhibition at 50 µM (at 50 μM) came out at 28.8%.
Consider `CC(=O)N1CCc2cc(F)c(S(=O)(=O)NC(=O)CC(O)c3ccccc3)cc21` (stereo not drawn), for which, where the note is “at 50 μM”, the “NDM-1 % Inhibition” value came out at 13.7% and the inhibition at 50 µM amounted to 12.8%.
For the molecule `CC(=O)N1CCc2cc(Br)c(S(=O)(=O)n3cc(C4(O)CCCCC4)nn3)cc21`, the “Activity w/100 uM [I]” value is listed as 53% and the “Activity w/200 uM [I]” value is given as 53%.
Take `CC(=O)N1CCc2cc(Cl)c(S(=O)(=O)/N=C(\N)CCO)cc21`: the half-inhibitory concentration (IC50) is 1 µM and testing at 5 µM gave an inhibition of 78.3%. This molecule also gave an inhibition at 50 µM (at 50 μM) of 99%.
Consider `CO/C(CC(C)(C)O)=N\S(=O)(=O)c1cc2c(cc1Br)CCN2C(C)=O` [MM-94], for which the “Activity w/100 uM [I]” value was found to be 96% and the “Activity w/200 uM [I]” value worked out at 35%.
Turning to `CC(=O)N1CCc2cc(Br)c(S(=O)(=O)/N=C(\N)Cc3ccccc3)cc21` [drawing 109], the IC50 is 110 µM; the inhibition at 100 µM turned out to be 55.5%; testing at 200 µM gave an inhibition of 73.8%; the pIC50 (usually −log10 of the IC50, conventionally taken in molar units) is 3.96.
`COC(=O)C/C(N)=N/S(=O)(=O)c1cc2c(cc1Br)CCN2C(C)=O`: the IC50 is 2 µM and at 5 µM the inhibition was 77.8%.
For the molecule `CC(=O)NS(=O)(=O)c1cc2c(cc1Br)CCN2C(C)=O`, for the setting “at 500 μM”, the inhibition at 500 µM was found to be 18%.
Regarding `CC(=O)N1CCc2cc(Cl)c(S(=O)(=O)/C=C(\N)CC(O)c3ccccc3)cc21` (stereo not drawn), the IC50 is 3 µM and the inhibition at 5 µM is 58.4%. At 50 µM the inhibition (at 50 μM) was 96.9%.
On to `CC(=O)NS(=O)(=O)c1ccc2c(c1)N(C(C)=O)CC2`, for which the IC50 was 300 µM and the inhibition at 200 µM is 34%. Moreover, 50 µM produced 10% inhibition (at 50 μM).
For the molecule `CC(=O)N1CCc2cc(Br)c(S(=O)(=O)/N=C(\N)CC3(O)CCCCC3)cc21`, the IC50 is 60 µM. The inhibition at 50 µM (at 50 μM) amounted to 35%.
For the molecule `CC(=O)N1CCc2cc(Br)c(S(=O)(=O)/N=C(\N)CC(C)(C)O)cc21` [drawing 104], the pKi (as a rule, −log10 of the Ki, conventionally taken in molar units) was 5.22; the IC50 is 22 µM; testing at 100 µM gave an inhibition of 74%; the inhibition at 200 µM stood at 93.6%. Also, the pIC50 is 4.66.
Take `CC(=O)N1CCc2cc(Br)c(S(=O)(=O)n3cc(C(C)(C)O)nn3)cc21`: the concentration for half-maximal inhibition (IC50) is 100 µM, the inhibition at 100 µM turned out to be 47%, 200 µM produced 47% inhibition and the pIC50 was 4.00.
Take `CC(=O)N1CCc2cc(Cl)c(S(=O)(=O)NC(=O)CC(O)c3ccccc3)cc21` (stereo not drawn): the IC50 was 100 µM and 5 µM produced 15.5% inhibition. Further, the inhibition at 50 µM (at 50 μM) was determined as 31.9%.
Consider `CC(=O)N1CCc2cc(Br)c(S(=O)(=O)/N=C(\N)Cc3ccccc3)cc21` [MM-86], for which the “Activity w/100 uM [I]” value was determined as 63% and the “Activity w/200 uM [I]” value worked out at 46%.
In the case of `CC(=O)N1CCc2cc(Br)c(S(=O)(=O)/N=C(\N)CC3(O)CCCC3)cc21`, the half-maximal inhibitory concentration (IC50) was 55 µM and the inhibition at 200 µM stood at 64.6%. Further, testing at 50 µM (at 50 μM) gave an inhibition of 42%.
As to `CC(=O)N1CCc2cc(Br)c(S(=O)(=O)/N=C(\N)CC(C)(C)O)cc21` [drawing 95], the “Activity w/100 uM [I]” value amounted to 26% and the “Activity w/200 uM [I]” value is 6.4%.
Take `O=C(O)c1ccc(CN2C(=O)c3ccccc3C2=O)cc1`: the “Activity w/100 uM [I]” value was 54% and the “Activity w/200 uM [I]” value was determined as 38%.
As to `CN/C(CC(C)(C)O)=N\S(=O)(=O)c1cc2c(cc1Br)CCN2C(C)=O`, the IC50 is 49 µM. For the same molecule, 50 µM produced 54.4% inhibition (at 50 μM).
Turning to `CC(=O)N1CCc2cc(Cl)c(S(=O)(=O)/N=C(\N)CC(C)(C)O)cc21`, the IC50 was 80 µM and the inhibition at 5 µM was 19.9%. Besides, at 50 µM the inhibition (at 50 μM) was 32.7%.
In the case of `CC(=O)N1CCc2cc(Br)c(S(=O)(=O)/C=C(\N)CC(O)c3ccccc3)cc21` (stereo not drawn), the IC50 was 2.6 µM, the inhibition at 5 µM is 75.4%, the inhibition at 25 µM worked out at 98.5% and the pIC50 was 5.58.
As for `CC(=O)N1CCc2cc(Br)c(S(=O)(=O)n3cc(C(C)O)nn3)cc21` (stereo not drawn), the IC50 is 2.9 µM, 5 µM produced 73.8% inhibition, the inhibition at 25 µM worked out at 95.1% and the pIC50 was 5.54.
As to `CC(=O)N1CCc2cc(Br)c(S(=O)(=O)/N=C(\N)CCO)cc21`, the 50% inhibitory concentration (IC50) is 9 µM and the inhibition at 10 µM is 54%. Besides, where the note is “at 50 μM”, the inhibition at 50 µM is 90.3%.
For `CC(=O)N1CCc2cc(Br)c(S(=O)(=O)n3cc(-c4ccccc4)nn3)cc21`, the inhibition at 100 µM is 25%.
For `CC(=O)N1CCc2cc(Br)c(S(=O)(=O)/N=C(\N)Cc3ccccn3)cc21`, the IC50 was 14 µM and the inhibition at 10 µM amounted to 42.9%. This molecule also had an inhibition at 50 µM (at 50 μM) of 97%.
Consider `CC(=O)N1CCc2cc(Br)c(S(=O)(=O)NC(=O)CC(C)(C)O)cc21`, for which the IC50 was 8.7 µM, 10 µM produced 62.7% inhibition and the negative logarithm of the IC50 (pIC50) was 5.06. This molecule yielded an inhibition at 50 µM (at 50 μM) of 93%.
